{"source": "paper PMC9103758", "about": "(International Journal of Molecular Sciences, 2022)", "key": {"hERG K+ channel": {"biological_target": "T1, hERG K+ channel (Homo sapiens, UniProt Q12809)", "T1 construct": "expressed in transfected cells; called HEK293", "T1 sequence (Q12809 whole entry)": "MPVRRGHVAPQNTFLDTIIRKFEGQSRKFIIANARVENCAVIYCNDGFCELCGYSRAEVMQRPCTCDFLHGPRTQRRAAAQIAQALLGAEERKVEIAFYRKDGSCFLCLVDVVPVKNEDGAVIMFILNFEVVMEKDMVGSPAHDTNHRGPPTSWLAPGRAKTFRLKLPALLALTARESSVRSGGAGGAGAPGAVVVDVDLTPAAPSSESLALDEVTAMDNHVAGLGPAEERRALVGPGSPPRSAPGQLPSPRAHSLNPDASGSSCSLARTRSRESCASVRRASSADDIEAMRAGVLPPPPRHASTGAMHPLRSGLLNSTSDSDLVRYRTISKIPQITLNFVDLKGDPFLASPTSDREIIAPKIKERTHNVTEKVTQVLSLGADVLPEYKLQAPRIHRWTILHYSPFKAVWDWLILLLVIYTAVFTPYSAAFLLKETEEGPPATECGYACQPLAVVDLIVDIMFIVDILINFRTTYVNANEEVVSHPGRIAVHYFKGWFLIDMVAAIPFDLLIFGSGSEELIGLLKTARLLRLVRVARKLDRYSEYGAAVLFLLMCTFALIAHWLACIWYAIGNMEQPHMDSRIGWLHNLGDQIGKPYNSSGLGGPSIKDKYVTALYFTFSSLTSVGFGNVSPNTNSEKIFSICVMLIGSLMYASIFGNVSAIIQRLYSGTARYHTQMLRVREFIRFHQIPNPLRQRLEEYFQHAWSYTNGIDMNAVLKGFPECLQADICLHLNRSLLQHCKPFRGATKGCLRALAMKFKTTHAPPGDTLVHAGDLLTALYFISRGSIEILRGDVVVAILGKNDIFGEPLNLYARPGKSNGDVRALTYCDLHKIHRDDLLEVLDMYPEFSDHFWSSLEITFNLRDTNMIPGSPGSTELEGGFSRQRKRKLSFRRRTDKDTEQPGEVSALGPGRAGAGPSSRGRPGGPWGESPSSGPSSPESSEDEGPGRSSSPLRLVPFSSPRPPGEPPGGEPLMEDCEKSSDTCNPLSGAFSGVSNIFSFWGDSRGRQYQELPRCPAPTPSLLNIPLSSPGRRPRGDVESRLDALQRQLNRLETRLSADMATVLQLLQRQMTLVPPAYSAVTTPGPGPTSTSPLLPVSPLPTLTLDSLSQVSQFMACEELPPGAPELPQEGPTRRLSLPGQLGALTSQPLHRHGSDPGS", "experiment": "FluxOR thallium flux assay in HEK293T cells expressing hERG", "assay_type": "cell-based", "experimental": "(C) Summary of dose-response (mean ± S.E., n = 5). […] (F) Summary of dose−response (mean ± S.E., n = 6).\nHEK293 cells stably expressing human Kv11.1 (hERG) were cultured in 96-well plates. After 48 h, the cells were incubated at 28 °C for 4 h to increase the membrane expression of hERG. The culture medium was replaced with a 80 μL/well of FluxOR (Invitrogen, Waltham, MA, USA) loading buffer and incubated for 1 h at 37 °C in the dark. After removing the loading buffer, 100 μL of assay buffer was added to each well. […] FluxOR fluorescence (excitation/emission: 490/525 nm) was recorded for 4 s before the addition of 20 μL of stimulus buffer containing thallium ions, and the fluorescence was recorded. FluxOR fluorescence was recorded and analyzed using the FLUOstar Omega microplate reader (BMG Labtech, Ortenberg, Germany) and the MARS Data Analysis Software (BMG Labtech, Ortenberg, Germany). All buffers were prepared according to the manufacturer’s instructions."}, "VRAC": {"biological_target": "T2, VRAC (Homo sapiens, UniProt Q8IWT6)", "T2 sequence (Q8IWT6 1-810)": "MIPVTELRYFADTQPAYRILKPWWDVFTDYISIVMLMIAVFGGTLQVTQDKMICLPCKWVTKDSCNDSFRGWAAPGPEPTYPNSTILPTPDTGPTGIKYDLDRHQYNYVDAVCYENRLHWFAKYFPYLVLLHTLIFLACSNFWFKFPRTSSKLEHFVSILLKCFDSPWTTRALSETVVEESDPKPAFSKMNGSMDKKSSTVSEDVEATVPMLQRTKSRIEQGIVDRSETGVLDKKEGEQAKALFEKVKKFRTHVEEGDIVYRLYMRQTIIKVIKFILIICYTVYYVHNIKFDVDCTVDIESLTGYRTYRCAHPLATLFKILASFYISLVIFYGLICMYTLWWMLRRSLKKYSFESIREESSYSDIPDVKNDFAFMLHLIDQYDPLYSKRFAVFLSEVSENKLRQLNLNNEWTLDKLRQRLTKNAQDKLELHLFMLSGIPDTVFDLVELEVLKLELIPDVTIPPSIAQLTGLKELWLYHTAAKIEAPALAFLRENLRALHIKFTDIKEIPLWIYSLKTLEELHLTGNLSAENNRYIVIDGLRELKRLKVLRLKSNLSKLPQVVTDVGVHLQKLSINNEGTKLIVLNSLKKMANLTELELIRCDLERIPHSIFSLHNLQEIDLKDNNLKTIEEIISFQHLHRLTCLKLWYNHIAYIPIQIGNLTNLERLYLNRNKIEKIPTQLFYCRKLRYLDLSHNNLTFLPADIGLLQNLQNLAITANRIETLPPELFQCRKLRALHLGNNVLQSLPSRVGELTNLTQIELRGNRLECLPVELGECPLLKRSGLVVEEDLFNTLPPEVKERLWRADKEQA", "experiment": "cell-based", "conditions": "LN215 cells"}, "human CFTR": {"biological_target": "T3, human CFTR (Homo sapiens, UniProt P13569)", "T3 construct": "expressed in transfected cells; host or cells: Fisher rat thyroid (FRT) cells", "T3 sequence (P13569 whole entry)": "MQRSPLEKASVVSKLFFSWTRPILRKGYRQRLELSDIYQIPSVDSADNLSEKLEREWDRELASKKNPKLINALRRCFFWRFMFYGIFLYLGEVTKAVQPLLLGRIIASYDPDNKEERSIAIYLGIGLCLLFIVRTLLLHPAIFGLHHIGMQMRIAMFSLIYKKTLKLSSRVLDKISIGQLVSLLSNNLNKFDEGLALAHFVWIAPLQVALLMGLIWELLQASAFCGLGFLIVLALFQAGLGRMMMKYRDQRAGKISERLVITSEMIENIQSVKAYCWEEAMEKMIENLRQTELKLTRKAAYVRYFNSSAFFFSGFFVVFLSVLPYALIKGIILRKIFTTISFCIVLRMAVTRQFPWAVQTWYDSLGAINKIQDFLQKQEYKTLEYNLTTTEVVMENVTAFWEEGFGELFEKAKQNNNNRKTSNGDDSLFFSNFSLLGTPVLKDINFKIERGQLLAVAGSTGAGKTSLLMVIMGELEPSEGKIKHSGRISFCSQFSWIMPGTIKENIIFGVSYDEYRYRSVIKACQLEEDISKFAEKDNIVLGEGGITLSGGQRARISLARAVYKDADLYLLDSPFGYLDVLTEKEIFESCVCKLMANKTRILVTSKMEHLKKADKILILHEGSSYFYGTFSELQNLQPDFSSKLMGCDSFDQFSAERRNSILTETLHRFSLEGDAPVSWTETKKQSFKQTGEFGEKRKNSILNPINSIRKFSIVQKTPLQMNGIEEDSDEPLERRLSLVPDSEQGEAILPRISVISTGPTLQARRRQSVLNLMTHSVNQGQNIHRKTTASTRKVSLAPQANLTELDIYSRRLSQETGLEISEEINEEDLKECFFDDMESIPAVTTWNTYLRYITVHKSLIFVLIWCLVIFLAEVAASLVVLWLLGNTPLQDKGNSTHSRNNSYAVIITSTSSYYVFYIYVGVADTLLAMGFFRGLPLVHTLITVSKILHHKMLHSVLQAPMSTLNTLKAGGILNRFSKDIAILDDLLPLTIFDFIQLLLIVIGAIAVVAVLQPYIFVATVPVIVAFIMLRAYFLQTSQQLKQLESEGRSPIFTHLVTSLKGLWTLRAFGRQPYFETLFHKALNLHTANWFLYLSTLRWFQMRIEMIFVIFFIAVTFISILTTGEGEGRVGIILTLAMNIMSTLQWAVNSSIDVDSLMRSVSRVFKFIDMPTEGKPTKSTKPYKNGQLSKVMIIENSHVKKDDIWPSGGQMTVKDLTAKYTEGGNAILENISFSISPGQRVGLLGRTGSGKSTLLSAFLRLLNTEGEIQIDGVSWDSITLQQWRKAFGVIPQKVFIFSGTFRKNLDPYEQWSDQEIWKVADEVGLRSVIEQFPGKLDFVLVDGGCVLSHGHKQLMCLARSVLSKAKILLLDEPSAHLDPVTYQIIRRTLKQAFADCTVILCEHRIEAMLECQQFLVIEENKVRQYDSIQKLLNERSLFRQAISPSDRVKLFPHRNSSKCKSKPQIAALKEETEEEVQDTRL", "experiment": "Apical membrane current of CFTR in FRT cells expressing human CFTR", "assay_type": "cell-based", "conditions": "apical membrane current, FRT cells expressing human CFTR, 20 μM forskolin, n = 5; read-out: CFTR chloride channel IC50", "from_the_text": "[…]. (C) Summary of dose-response (mean ± S.E., n = 5). […]. (F) Summary of dose−response (mean ± S.E., n = 6).\nSnapwell inserts containing ANO1(abc) or CFTR-expressing FRT cells were mounted in Ussing chambers (Physiological Instruments, San Diego, CA). The basolateral hemichamber was filled with buffer solution (in mM): 120 NaCl, 5 KCl, 1 MgCl2, 1 CaCl2, 10 D-glucose, 2.5 HEPES, and 25 NaHCO3 (pH 7.4). The apical hemichamber was filled with buffer solution (in mM): 60 NaCl, 60 Na-gluconate, 5 KCl, 1 MgCl2, 1 CaCl2, 10 D-glucose, 2.5 HEPES, and 25 NaHCO3 (pH 7.4). FRT cells were bathed for a 10 min stabilization period and gassed with 5% CO2 and 95% O2 at 37 °C. The apical membrane current was recorded with an EVC4000 Multi-Channel V/I Clamp (World Precision Instruments, Sarasota, FL, USA) and a PowerLab 4/35 (AD Instruments, Castle Hill, Australia)."}, "[1]": {"system": "ATP-induced intracellular calcium signaling in FRT cells", "experiment": "Intracellular calcium measurement (Fluo-4) in FRT cells", "assay_type": "cell-based, rat", "conditions": "100 μM ATP", "experimental": "(A) Representative Fluo4 fluorescence traces from 3 independent experiments in FRT cells. […] (B,C) Representative apical membrane currents from 3–4 independent experiments in FRT cells expressing human ANO1. […] (D) Representative YFP fluorescence traces in FRT cells expressing human ANO2. […] (E) Representative Fluo4 fluorescence traces from 3 independent experiments in FRT cells. Cells were pretreated with DCPIB for 10 min followed by application of 100 μM ATP. (F) Representative apical membrane currents in FRT cells expressing human ANO1.\nFRT cells were plated on 96-well black-walled microplates and loaded with Fluo-4 NW according to the manufacturer’s protocol (Invitrogen, Carlsbad, CA, USA). […] The 96-well plates were transferred to a plate reader for fluorescence assay."}}, "note": "Where “and” joins values, the source holds several entries; their conditions need not be identical. Identical values can stand only once. Entries after “also recorded” stand apart in the source; their conditions may differ.", "data": [{"smiles": "COc1cccc(C(c2c(O)c3ccccc3oc2=O)c2c(O)c3ccccc3oc2=O)c1O", "note": "[VI-116, 3,3′-((2-hydroxy-3-methoxyphenyl)methylene)bis(4-hydroxy-2H-chromen-2-one)]", "values": [{"measurement": "effect on hERG K+ channel activity", "setting": "hERG K+ channel; 10 μM", "result": "minimal inhibitory effect"}, {"measurement": "IC50", "setting": "hERG K+ channel; thallium flux, HEK293T cells expressing hERG, n = 6", "result": 89.6, "unit": "µM"}, {"measurement": "IC50", "setting": "VRAC; VRAC IC50, YFP fluorescence quenching, hypotonic solution 5 min, n = 4", "result": "1.28 µM and 1.27 µM and 1.3 µM"}, {"measurement": "IC50", "setting": "VRAC; VRAC IC50 in the presence of 10% FBS, medium containing 10% FBS, 5 min", "result": 6.89, "unit": "µM"}, {"measurement": "IC50", "setting": "human CFTR", "result": 12.4, "unit": "µM"}, {"measurement": "effect on intracellular calcium signaling", "setting": "[1]; 30 μM", "result": "weak inhibitory effect"}, {"measurement": "effect on ATP-induced increase in intracellular calcium levels", "setting": "[1]; up to 10 μM", "result": "no effect; also recorded: did not affect"}]}]}
